Laboratory results taken from patent publication US6555821B1, “Method for analysis of expired gas” (priority 1999, dated 2003).
“And” between values parts separate entries of the source, which are not always exact repeats. Equal values may be shown once.

Columns and labels:
[1] = Bubbling tests: alcohol concentration in gas phase over alcohol-water solution, measured by low resolution FT-IR; type: physicochemical; details: for Concentration of ethanol in gas phase / Concentration of methanol in gas phase: 21.0 ± 1.0° C., 1 atm, mean ± SD of 10 spectra
[2] = 25° C., 1 atm; Hine and Mookerjee 1975, Davidovits et al. 1995; cited from earlier work
[3] = Bubbling tests: alcohol concentration in gas phase over alcohol-water solution, measured by low resolution FT-IR; type: physicochemical; details: for Concentration of methanol in gas phase: 21.0 ± 1.0° C., 1 atm, mean ± SD of 10 spectra
Protocol: Vaporous ethanol and methanol mixtures in water were made by bubbling nitrogen gas through a corresponding liquid mixture. The purpose of measuring mixtures of ethanol and methanol was to test the applicability of the instrument for determining more than one alcohol in a gas mixture containing a large amount of water vapor like human exhaled breath. Particularly, the measurements were performed with a large ethanol:methanol ratio in order to investigate whether the instrument is able to determine a low concentration of methanol in the presence of a large amount of ethanol.

CCO [ethanol]
Concentration of ethanol in gas phase ([1]; 3.17 W-% ethanol in water with methanol in liquid 0.102 w-%): 295 ± 2 ppm | Concentration of ethanol in gas phase ([1]; 3.17 W-% ethanol in water with methanol in liquid 0.159 w-%): 314 ± 4 ppm | Concentration of ethanol in gas phase ([1]; 3.17 W-% ethanol in water with methanol in liquid 0.222 w-%): 298 ± 3 ppm | Concentration of ethanol in gas phase ([1]; 3.17 W-% ethanol in water with methanol in liquid 0.317 w-%): 304 ± 2 ppm | Concentration of ethanol in gas phase ([1]; 3.17 W-% ethanol in water with methanol in liquid 0.95 w-%): 296 ± 4 ppm | Concentration of ethanol in gas phase ([1]; 3.17 W-% ethanol in water with methanol in liquid 1.59 w-%): 303 ± 5 ppm | Concentration of ethanol in gas phase ([1]; 3.17 W-% ethanol in water with methanol in liquid 3.18 w-%): 300 ± 2 ppm | Concentration of ethanol in gas phase ([1]; 3.17 W-% ethanol in water with methanol in liquid 6.36 w-%): 293 ± 3 ppm | Concentration of ethanol in gas phase ([1]; 3.17 W-% ethanol in water with methanol in liquid 15.9 w-%): 289 ± 1 ppm | ethanol in the gas phase (FIG. 1 spectrum) ([1]; 3.17 w-‰ ethanol and 0.159 w-‰ methanol in liquid phase (water), 21±1° C.): 310 ppm | Concentration of ethanol in gas phase ([1]; ethanol in liquid 0.202 w-%, water): 19.2 ± 0.1 ppm | Concentration of ethanol in gas phase ([1]; ethanol in liquid 0.5 w-%, water): 45.7 ± 0.3 ppm | Concentration of ethanol in gas phase ([1]; ethanol in liquid 1 w-%, water): 94 ± 1 ppm | Concentration of ethanol in gas phase ([1]; ethanol in liquid 1.58 w-%, water): 148 ± 2 ppm | Concentration of ethanol in gas phase ([1]; ethanol in liquid 3.16 w-%, water): 305 ± 4 ppm | Concentration of ethanol in gas phase ([1]; ethanol in liquid 6.33 w-%, water): 587 ± 4 ppm | Concentration of ethanol in gas phase ([1]; ethanol in liquid 9.49 w-%, water): 907 ± 6 ppm | Concentration of ethanol in gas phase ([1]; ethanol in liquid 15.8 w-%, water): 1466 ± 11 ppm | Concentration of ethanol in gas phase ([1]; ethanol in liquid 31.6 w-%, water): 2907 ± 4 ppm

CO [methanol]
water-air partition coefficient (literature Henry's law constants) [2]: 5260 and 5334 | Concentration of methanol in gas phase ([1]; methanol in liquid 0.101 w-%, water): 13 ± 0.2 ppm | Concentration of methanol in gas phase ([1]; methanol in liquid 0.102 w-% in mixture of water and 3.17 W-% ethanol): 14.2 ± 0.4 ppm | Concentration of methanol in gas phase ([1]; methanol in liquid 0.159 w-% in mixture of water and 3.17 W-% ethanol): 22.2 ± 0.4 ppm | Concentration of methanol in gas phase ([1]; methanol in liquid 0.203 w-%, water): 26.9 ± 0.1 ppm | Concentration of methanol in gas phase ([1]; methanol in liquid 0.301 w-%, water): 41.6 ± 0.3 ppm | Concentration of methanol in gas phase ([1]; methanol in liquid 0.317 w-% in mixture of water and 3.17 W-% ethanol): 43.4 ± 0.4 ppm | Concentration of methanol in gas phase ([1]; methanol in liquid 0.501 w-%, water): 61 ± 1 ppm | Concentration of methanol in gas phase ([1]; methanol in liquid 1.59 w-%, water): 204 ± 2 ppm | Concentration of methanol in gas phase ([1]; methanol in liquid 3.17 w-%, water): 402 ± 2 ppm | Concentration of methanol in gas phase ([1]; methanol in liquid 6.34 w-%, water): 805 ± 4 ppm | Concentration of methanol in gas phase ([1]; methanol in liquid 9.51 w-%, water): 1207 ± 5 ppm | Concentration of methanol in gas phase ([1]; methanol in liquid 15.9 w-% in mixture of water and 3.17 W-% ethanol): 2006 ± 3 ppm | Concentration of methanol in gas phase ([1]; methanol in liquid 15.9 w-%, water): 2031 ± 14 ppm | Concentration of methanol in gas phase ([1]; methanol in liquid 31.7 w-%, water): 4067 ± 28 ppm | methanol in the gas phase (FIG. 1 spectrum) ([3]; 0.159 w-‰ methanol and 3.17 w-‰ ethanol in liquid phase (water), 21±1° C.): 22.4 ppm | Concentration of methanol in gas phase ([3]; methanol in liquid 0.222 w-% in mixture of water and 3.17 W-% ethanol): 30.2 ± 0.5 ppm | Concentration of methanol in gas phase ([3]; methanol in liquid 0.95 w-% in mixture of water and 3.17 W-% ethanol): 120 ± 2 ppm | Concentration of methanol in gas phase ([3]; methanol in liquid 1.59 w-% in mixture of water and 3.17 W-% ethanol): 201 ± 3 ppm | Concentration of methanol in gas phase ([3]; methanol in liquid 3.18 w-% in mixture of water and 3.17 W-% ethanol): 402 ± 2 ppm | Concentration of methanol in gas phase ([3]; methanol in liquid 6.36 w-% in mixture of water and 3.17 W-% ethanol): 806 ± 7 ppm
